{
  "source": "patent US9877980B2",
  "about": "“Method and composition for treatment or prevention of type 2 diabetes and hyperlipidemia” (Chun-Ching Shih, priority 2016, dated 2018)",
  "format_in_all_cases": "in vivo",
  "key": {"[1]": {"test_system": "C57BL/6J mice on high-fat diet (HFD)", "test": "Hepatic lipids in HFD mice", "conditions": "4 weeks", "protocol": "(§1) The following experiment was performed and approved by the guidelines of the Institutional Animal Care and Use Committee of Central Taiwan University of Science and Technology. The 4-week old male C57BL/6J mice (total amount n=63) were purchased from the National Laboratory Animal Breeding and Research Center (Taipei, Taiwan). After acclimatization for one week, all of the mice were divided randomly into the control (CON) group and the high-fat diet (HFD) group. For the following 12 weeks, the CON group (n=9) was kept on a low-fat diet (Diet 12450B, Research Diets, Inc., New Brunswick, N.J., USA), while the HFD group (n=54) was exposed to a high-fat diet (Diet 12451, Research Diets, New Brunswick, N.J., USA). The low-fat diet was composed of protein 20%, carbohydrate 70% and fat 10%, whereas the high-fat diet was composed of protein 20%, carbohydrate 35%, and fat 45% (of total energy, % kcal). After HFD exposure for 8 weeks, the HFD group was further randomly subdivided into 6 groups (n=9 per group) to receive different treatments by oral gavage once daily for four weeks and on HFD. […] The HF+B1, HF+B2, and […] are collectively termed BB-treated HFD groups in the following examples. The CON mice were administered vehicle. After dosing for 4 weeks, the mice were given no food at night and sacrificed after 12 h of fasting on the next day. All of the individual tissues were collected and weighed, and portions were instantly frozen using liquid nitrogen and kept at −80° C. for subsequent target gene analysis. Blood samples (0.8 mL) were collected for analysis of blood parameters.\nFor hepatic lipid extraction, a 0.375 g liver samples were homogenized with 1 mL distill water for 5 minutes. The dried pellet was finally resuspended in 0.5 mL ethanol and analyzed using a triglycerides kit as used for analyzing the serum lipids set forth above."}, "hepatocytes of HFD mice": {"test_system": "hepatocytes of HFD mice", "test": "Histology of liver tissue (hepatocellular ballooning)", "conditions": "4 weeks, grade 0 absence, 1 a few cells", "protocol": "as §1\nSmall pieces of epididymal white adipose tissue and liver tissue were fixed with formalin (200 g/kg) neutral buffered solution and embedded in paraffin. Sections of 8 μm […] were cut and stained with hematoxylin and eosin. For microscopic examination, a microscope (Leica, DM2500) was used, and the images were taken using a Leica Digital Camera (DFC-425-C).\nBased on previous report, the designation of histological hepatocellular ballooning findings include grade 0 for absence of degeneration, grade 1 for degeneration in a few cells, and […] for degeneration in many cells."}, "11β-HSD1": {"test_system": "11β-HSD1", "test": "Semi-quantitative RT-PCR of liver mRNA: 11β-HSD1", "conditions": "HFD mice, 4 weeks, vs HF group", "protocol": "as §1, with “For the following 12 weeks, the CON group (n=9) was kept on a low-fat diet (Diet 12450B, Research Diets, Inc., New Brunswick, N.J., USA), while the HFD group (n=54) was exposed to a high-fat diet (Diet 12451, Research Diets, New Brunswick, N.J., USA). The low-fat diet was composed of protein 20%, carbohydrate 70% and fat 10%, whereas the high-fat diet was composed of protein 20%, carbohydrate 35%, and fat 45% (of total energy, % kcal).” left out\n(§2) Total RNA from liver tissue of mice was isolated with a Trizol Reagent (Molecular Research Center, Inc., Cincinnati, Ohio, USA) according to the manufacturer's instructions. The integrity of the extracted total RNA was examined by 2% agarose gel electrophoresis, and the RNA concentration was determined by the ultraviolet (UV) light absorbency at 260 nm and 280 nm (Spectrophotometer U-2800A, Hitachi). The quality of the RNA was confirmed by ethidium bromide staining of 18S and 28S ribosomal RNA after electrophoresis on 2% agarose gel containing 6% formaldehyde.\n(§3) Levels of mRNA of genes of interest were quantified by semi-quantitative reverse transcription polymerase chain reaction (RT-PCR). […] PCR products were analyzed by 2% agarose gels and stained with ethidium bromide."}, "PPARα": {"test_system": "PPARα", "test": "Semi-quantitative RT-PCR of liver mRNA: PPARα", "conditions": "HFD mice, 4 weeks, vs HF group", "protocol": "as §1, with “For the following 12 weeks, the CON group (n=9) was kept on a low-fat diet (Diet 12450B, Research Diets, Inc., New Brunswick, N.J., USA), while the HFD group (n=54) was exposed to a high-fat diet (Diet 12451, Research Diets, New Brunswick, N.J., USA). The low-fat diet was composed of protein 20%, carbohydrate 70% and fat 10%, whereas the high-fat diet was composed of protein 20%, carbohydrate 35%, and fat 45% (of total energy, % kcal).” left out\nas §2, §3"}},
  "note": "Marks after values point to notes of the source that are not given here.",
  "data": [
    {"smiles": "OCC1O[C@@H](O[C@@H]2Cc3c(O)cc(O)cc3O[C@@H]2c2ccc(O)c(O)c2)C(O)C(O)[C@@H]1O", "note": "(single isomer, unassigned; (-)) [compound of formula I, (−)-epicatechin-3-O-β-D-allopyranoside]", "values": [
      {"measurement": "Liver lipids Total lipid", "setting": "[1]; 10 mg/kg/day oral gavage", "result": "71.9 ± 6.5^d mg/g"},
      {"measurement": "Liver lipids Triacylglycerol", "setting": "[1]; 10 mg/kg/day oral gavage", "result": "49.9 ± 8.0^d μmol/g"},
      {"measurement": "Liver lipids Total lipid", "setting": "[1]; 20 mg/kg/day oral gavage", "result": "66.1 ± 6.9^e mg/g"},
      {"measurement": "Liver lipids Triacylglycerol", "setting": "[1]; 20 mg/kg/day oral gavage", "result": "42.8 ± 6.5^f μmol/g"},
      {"measurement": "Liver lipids Total lipid", "setting": "[1]; 40 mg/kg/day oral gavage", "result": "60.2 ± 5.2^f mg/g"},
      {"measurement": "Liver lipids Triacylglycerol", "setting": "[1]; 40 mg/kg/day oral gavage", "result": "40.8 ± 4.6^f μmol/g"},
      {"measurement": "hepatocellular ballooning mean score", "setting": "hepatocytes of HFD mice; 10 mg/kg/day oral gavage", "result": "0.7±0.1"},
      {"measurement": "hepatocellular ballooning mean score", "setting": "hepatocytes of HFD mice; 20 mg/kg/day oral gavage", "result": "0.5±0.2"},
      {"measurement": "hepatocellular ballooning mean score", "setting": "hepatocytes of HFD mice; 40 mg/kg/day oral gavage", "result": "0.4±0.1"},
      {"measurement": "liver mRNA level of 11β-HSD1", "setting": "11β-HSD1; 10 mg/kg/day oral gavage", "result": "significantly reduced"},
      {"measurement": "liver mRNA level of 11β-HSD1", "setting": "11β-HSD1; 20 mg/kg/day oral gavage", "result": "significantly reduced"},
      {"measurement": "liver mRNA level of 11β-HSD1", "setting": "11β-HSD1; 40 mg/kg/day oral gavage", "result": "significantly reduced"},
      {"measurement": "liver PPARα mRNA level", "setting": "PPARα; 10 mg/kg/day oral gavage", "result": "enhanced"},
      {"measurement": "liver PPARα mRNA level", "setting": "PPARα; 20 mg/kg/day oral gavage", "result": "enhanced"},
      {"measurement": "liver PPARα mRNA level", "setting": "PPARα; 40 mg/kg/day oral gavage", "result": "enhanced"}
    ]}
  ]
}
